Assay results as given in ChEMBL document CHEMBL6096654, “Allosteric inhibition of PTP1B by bromocatechol-chalcone derivatives” (Eur J Med Chem, 2025).

Tests used:
[1] = molecular target: T1, Tyrosine-protein phosphatase non-receptor type 1 (Homo sapiens, UniProt P18031); test: Allosteric inhibition of PTP1B (unknown origin) using pNPP as substrate incubated for 30 mins by spectrophotometry
T1 sequence (P18031 whole entry): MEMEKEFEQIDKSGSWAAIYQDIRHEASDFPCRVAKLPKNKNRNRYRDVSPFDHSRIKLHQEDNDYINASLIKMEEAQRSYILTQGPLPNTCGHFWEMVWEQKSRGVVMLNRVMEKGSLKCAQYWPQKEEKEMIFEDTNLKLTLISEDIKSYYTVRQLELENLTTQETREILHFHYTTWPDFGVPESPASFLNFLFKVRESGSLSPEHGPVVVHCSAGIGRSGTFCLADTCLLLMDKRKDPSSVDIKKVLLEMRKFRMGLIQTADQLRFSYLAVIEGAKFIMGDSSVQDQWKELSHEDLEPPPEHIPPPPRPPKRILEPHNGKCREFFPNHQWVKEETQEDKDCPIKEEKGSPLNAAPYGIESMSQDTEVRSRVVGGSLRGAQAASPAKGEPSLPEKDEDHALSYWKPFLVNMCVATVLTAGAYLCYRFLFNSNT

[2] = Inhibition of PTP1B N193A/K197A mutant (unknown origin) using pNPP as substrate incubated for 30 mins by spectrophotometry; parameters: species or system Homo sapiens
[3] = molecular target: T2, Tyrosine-protein phosphatase non-receptor type 2 (Homo sapiens, UniProt P17706); test: Inhibition of TCPTP (unknown origin) using pNPP as substrate incubated for 30 mins by spectrophotometry
T2 sequence (P17706 whole entry): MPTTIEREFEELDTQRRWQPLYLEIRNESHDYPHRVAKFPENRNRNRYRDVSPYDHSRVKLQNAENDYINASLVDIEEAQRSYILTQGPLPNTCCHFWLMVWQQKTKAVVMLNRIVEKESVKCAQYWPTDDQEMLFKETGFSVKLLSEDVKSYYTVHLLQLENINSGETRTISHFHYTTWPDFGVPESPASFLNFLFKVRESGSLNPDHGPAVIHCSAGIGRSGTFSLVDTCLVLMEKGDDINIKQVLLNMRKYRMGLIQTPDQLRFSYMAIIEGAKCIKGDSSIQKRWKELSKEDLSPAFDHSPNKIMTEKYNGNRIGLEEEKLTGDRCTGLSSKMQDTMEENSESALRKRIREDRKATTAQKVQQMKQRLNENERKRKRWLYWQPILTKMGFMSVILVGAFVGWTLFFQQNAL

[4] = molecular target: T3, Tyrosine-protein phosphatase non-receptor type 11 (Homo sapiens, UniProt Q06124); test: Inhibition of SHP2 (unknown origin) using pNPP as substrate incubated for 30 mins by spectrophotometry
T3 sequence (Q06124 whole entry): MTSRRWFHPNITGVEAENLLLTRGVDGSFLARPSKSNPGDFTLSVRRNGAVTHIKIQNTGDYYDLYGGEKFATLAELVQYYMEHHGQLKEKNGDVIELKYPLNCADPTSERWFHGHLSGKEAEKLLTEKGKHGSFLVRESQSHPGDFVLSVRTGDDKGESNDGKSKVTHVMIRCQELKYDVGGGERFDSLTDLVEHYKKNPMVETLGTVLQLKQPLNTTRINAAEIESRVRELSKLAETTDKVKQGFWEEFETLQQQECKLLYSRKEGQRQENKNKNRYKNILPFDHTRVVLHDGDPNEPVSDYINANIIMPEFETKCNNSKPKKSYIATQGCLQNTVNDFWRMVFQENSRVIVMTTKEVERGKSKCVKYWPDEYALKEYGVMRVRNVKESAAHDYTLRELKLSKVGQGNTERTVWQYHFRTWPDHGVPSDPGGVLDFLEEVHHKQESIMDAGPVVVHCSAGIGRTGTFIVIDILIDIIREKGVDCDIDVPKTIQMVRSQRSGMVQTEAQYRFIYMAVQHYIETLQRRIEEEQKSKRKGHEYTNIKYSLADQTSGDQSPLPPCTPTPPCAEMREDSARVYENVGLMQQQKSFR

Structure (SMILES)	IC50 [1] [µM]	IC50 [2] [µM]	IC50 [3] [µM]	IC50 [4] [µM]
O=C(/C=C/c1cc(O)c(O)c(Br)c1Br)c1cccc(C(F)(F)F)c1	3.59	15.7	13.6	> 20
Cc1ccc(C(=O)/C=C/c2cc(O)c(O)c(Br)c2Br)cc1	2	10.2	10.3	> 20
Cc1ccccc1C(=O)/C=C/c1cc(O)c(O)c(Br)c1Br	1.71	8.01	9.4	> 20
O=C(/C=C/c1cc(O)c(O)c(Br)c1Br)c1cccc(Cl)c1	2.59	12.7	8.97	> 20
O=C(/C=C/c1cc(O)c(O)c(Br)c1Br)c1ccccc1Cl	2.17	10.5	5.74	> 20
CCOc1ccc(C(=O)/C=C/c2cc(O)c(O)c(Br)c2Br)cc1	3.25	9.18	17.3	> 20
O=C(/C=C/c1cc(O)c(O)c(Br)c1Br)c1ccc(Cl)cc1	2.15	12.6	9.7	> 20

Other lines, results leading:

IC50 [1] [µM]	IC50 [2] [µM]	IC50 [3] [µM]	IC50 [4] [µM]	Structure (SMILES)
2.54	12.6	15	> 20	O=C(/C=C/c1cc(O)c(O)c(Br)c1)c1cc(Br)c(O)c(Br)c1
1.43	9.11	3.74	> 20	COc1ccc(C(=O)/C=C/c2cc(O)c(O)c(Br)c2Br)cc1Br
3.02	11.4	16	> 20	O=C(/C=C/c1cc(O)c(O)c(Br)c1Br)c1ccc(Cl)c(Cl)c1
2.45	9.07	13.4	> 20	COc1ccc(C(=O)/C=C/c2cc(O)c(O)c(Br)c2)cc1Br
